{"source": "patent US8592421B2", "about": "“Cyclic bioisosters of purine system derivatives and a pharmaceutical composition based thereon” (priority 2003, dated 2013)", "key": {"[1]": {"test": "Morphine abstinence model: indicator enzymes ALT, AST, γ-GTP in blood plasma", "settings": "20.0 mg/kg intramuscularly three times a day; for γ-GTP in blood plasma, Ci: control 6.261 ± 1.80; for ALT in blood plasma, Ci: control 106.76 ± 111.35; for AST in blood plasma, Ci: control 179.881 ± 11.94", "procedure": "(§1) The experiments were carried out on rats in series of 7 animals on each compound according to the invention. Non-morphinized animal with not administered with compounds according to the invention were used as a control group. […] Then the rats were decapitated, the blood from somnolent arteries was collected in test tubes with solution EDTA as an anticoagulant, centrifuged at 1500 g for 15 minutes at 4° C.\nTo estimate possible hepatoprotective action of the compounds according to the invention under conditions of development of an oxidizing stress in the liver cells, effect of these compounds on the most important biochemical blood indexes, in particular, on the content in blood plasma of indicator enzyme of aspartateaminotransferase (AST), alanineaminotransferase (ALT), γ-glutamiletranspeptidase (γ-GTP) was investigated. The content of enzymes was estimated by their catalyzing activity in blood plasma.\nThe activity of AST, ALT and γ-GTP was determined by means of diagnostic sets DiaSys, Germany."}, "[2]": {"test": "Morphine abstinence model: nitrites/nitrates NOX− in blood plasma, liver and brain", "assay_type": "in vivo, rats Wistar", "settings": "20.0 mg/kg intramuscularly; for Nitrites in liver: control 0.260 ± 0.023; for Nitrites in brain: Cortex of cerebrum: control 4.63 ± 0.29; for Nitrites in brain: Mesencephalon: control 5.66 ± 0.19; for Nitrites in brain: Hypothalamus: control 6.57 ± 0.50; for Nitrites in blood plasma: control 18.30 ± 2.14", "procedure": "as §1\nTo estimate the intensity of metabolism of nitrogen oxide in rats, quantitative determination of stable metabolites of nitrogen oxide—nitrites and nitrates NOX^− in the blood plasma, supernatanates of the liver and thymus gland, a study was conducted by a spectrometric method, and in the brain supernatanates by a […] method.\nThe spectrometric method is based the reaction of nitrites with the Griss reagent (a mixture of 2% solution of sulfanilamide and 0.2% N-(1-naphthyl)ethylene diamine. At the first step the nitrite reacts with sulfanilamide with formation of diazonium salt, and then with the second component to form azo dye with an adsorption maximum at 540 nm. For reduction of nitrates into nitrites, a fermentative method was used with bacterial reductase nitrate (Grisham M. B. et al., 1995). The samples of plasma and supernathant of the liver deproteinizated at 100° C. for 5 minutes incubated for 30 minutes at 37° C. in 50.0 mM of HEPES pH 7.4 in the presence of 0.2 unit/ml of Aspergillus reductase nitrate, 5.0 mkM of FAD and 0.1 mM of NAD-Ph. At the end of the reaction lactate dehydrogenase and pyruvate were added for isolation of NAD-Ph interfering with the Griss reaction. Then the Griss reagent was added and after 10-minute incubation the light absorption of the samples was measured at 540 nm. To amount of NOX^− was calculated using sodium nitrate as a standard.\nThe fluorometric method is based on calculation of the nitrite level by the intensity fluorescence of 2,3-diaminonaphthotriazole, a product of reaction of 2,3-diaminonaphthalene (DAN) and nitrite in an acidic medium (Misko T. R., Schilling R. J., Salvemini D. et al. “A fluorometric assay for the measurement of nitrite of biological samples”. Anal. Biochem., 1993, v. 214, p. 11-16). The brain supernatants deproteinizated at 100° C. were placed in a nitrite regenerating system containing 0.125 unit/ml of nitrate reductases, 25 mkM NADPh and 25 mkM FAD prepared in a 20-mM Tris-HCl buffer with pH 7.6 and incubated for 30 minutes at 37° C. The lactate dehydrogenase/pyruvate system was used for oxidation of the NADPh. Then 316 mkM of the DAN solution in 0.62 M of hydrochloric acids were added and the mixture was incubated for 10 minutes in darkness.\n280 mM of NaOH were added for stabilization of the fluorescence of the formed 2,3-diaminonaphthotriazole. The fluorescence intensity was measured in the spectrofluorimeter Hitachi F-3000 at a wavelength of excitation of 365 nm and an emission of 405 nm. The concentration of NOX^− in the brain was calculated by means of a standard solution of sodium nitrate."}, "[3]": {"test_system": "plasma hemostasis", "test": "Prothrombin time after intravenous administration", "assay_type": "in vivo, rabbit", "procedure": "The static parameters of the blood and plasma coagulation (partial activated thromboplastin time, thrombin time, maximum coagulation activity (test for auto coagulation) were determined using the Behnk Electronic coagulometer (Germany). The operating principle of this instrument is based on the fact that the formed blood clot breaks the contacts of the pulse counter in the flask-pin circuit, said pin permanently oscillating in a vertical plane. The moment of formation of the clot is registered by stopping the stop watch hand.\nThe measurements were effected at a constant temperature of 37° C. maintained by a temperature control unit.\nThe method of its determination is based on estimation of the coagulation of citrate or oxalic blood plasma, when it is mixed with thromboplastin and a calcium chloride solution. Since under these conditions the time of formation of the clot depends on the content of II, VII, IX and X factors in the investigated plasma sample, now the test is called “thromboplastin time by Quick” or “activity thromboplastin complex”.\nCitrate blood containing 1 part of citrate per 9 parts of native blood was centrifuged at 3000 rev/min for 10 minutes to obtain plasma deprived of thrombocytes.\nAdded into a test tube in a water bath were 0.1 ml of plasma and 0.1 ml of a thromboplastin solution."}}}
{"smiles": "O=c1[nH][nH]c(=O)c2c(Br)ncnc12.[K]", "note": "[Compound 37, potassium salt of 4-bromine-pyrimido[4,5-D]-6H-pyridazine-5,8-dione]", "values": [{"measurement": "γ-GTP in blood plasma, Ci", "setting": "[1]; Control + compound", "result": "8.14 ± 2.64", "unit": "mE/l"}, {"measurement": "ALT in blood plasma, Ci", "setting": "[1]; Control + compound", "result": "113.84 ± 2.0", "unit": "mE/l"}, {"measurement": "AST in blood plasma, Ci", "setting": "[1]; Control + compound", "result": "174.82 ± 4.91", "unit": "mE/l"}, {"measurement": "γ-GTP in blood plasma, Ci", "setting": "[1]; control + Morphine + Compound", "result": "10.32 ± 2.67", "unit": "mE/l"}, {"measurement": "ALT in blood plasma, Ci", "setting": "[1]; control + Morphine + Compound", "result": "120.84 ± 5.20", "unit": "mE/l"}, {"measurement": "AST in blood plasma, Ci", "setting": "[1]; control + Morphine + Compound", "result": "193.58 ± 14.18", "unit": "mE/l"}, {"measurement": "Nitrites in liver", "setting": "[2]; Control + Compound", "result": "0.262 ± 0.018 nmol/mg of protein"}, {"measurement": "Nitrites in brain: Cortex of cerebrum", "setting": "[2]; Control + Compound", "result": "4.36 ± 0.24 nmol/mg of protein"}, {"measurement": "Nitrites in brain: Mesencephalon", "setting": "[2]; Control + Compound", "result": "6.84 ± 0.56 nmol/mg of protein"}, {"measurement": "Nitrites in brain: Hypothalamus", "setting": "[2]; Control + Compound", "result": "6.79 ± 0.92 nmol/mg of protein"}, {"measurement": "Nitrites in blood plasma", "setting": "[2]; Control + Compound", "result": "16.13 ± 1.80", "unit": "mkmol/ml"}, {"measurement": "Nitrites in liver", "setting": "[2]; Control + Morphine + compound", "result": "0.274 ± 0.01 nmol/mg of protein"}, {"measurement": "Nitrites in brain: Cortex of cerebrum", "setting": "[2]; Control + Morphine + compound", "result": "4.77 ± 0.28 nmol/mg of protein"}, {"measurement": "Nitrites in brain: Mesencephalon", "setting": "[2]; Control + Morphine + compound", "result": "5.63 ± 0.37 nmol/mg of protein"}, {"measurement": "Nitrites in brain: Hypothalamus", "setting": "[2]; Control + Morphine + compound", "result": "6.52 ± 0.83 nmol/mg of protein"}, {"measurement": "Nitrites in blood plasma", "setting": "[2]; Control + Morphine + compound", "result": "15.33 ± 0.87", "unit": "mkmol/ml"}, {"measurement": "prothrombin time, T", "setting": "[3]; 15.0 mg/kg intravenously, after 15 minutes, control 11.8 ± 0.1", "result": "11.6 ± 0.2", "unit": "s"}, {"measurement": "prothrombin time, T", "setting": "[3]; 15.0 mg/kg intravenously, after 30 minutes, control 11.8 ± 0.1", "result": "11.6 ± 0.1", "unit": "s"}, {"measurement": "prothrombin time, T", "setting": "[3]; 15.0 mg/kg intravenously, after 60 minutes, control 11.8 ± 0.1", "result": "11.5 ± 0.2", "unit": "s"}, {"measurement": "prothrombin time, T", "setting": "[3]; 15.0 mg/kg intravenously, after 120 minutes, control 11.8 ± 0.1", "result": "11.8 ± 0.1", "unit": "s"}, {"measurement": "prothrombin time, T", "setting": "[3]; 30.0 mg/kg intravenously, after 15 minutes, control 11.2 ± 0.1", "result": "11.3 ± 0.1", "unit": "s"}, {"measurement": "prothrombin time, T", "setting": "[3]; 30.0 mg/kg intravenously, after 30 minutes, control 11.2 ± 0.1", "result": "11.2 ± 0.2", "unit": "s"}, {"measurement": "prothrombin time, T", "setting": "[3]; 30.0 mg/kg intravenously, after 60 minutes, control 11.2 ± 0.1", "result": "11.4 ± 0.1", "unit": "s"}, {"measurement": "prothrombin time, T", "setting": "[3]; 30.0 mg/kg intravenously, after 120 minutes, control 11.2 ± 0.1", "result": "11.1 ± 0.1", "unit": "s"}, {"measurement": "prothrombin time, T", "setting": "[3]; 60.0 mg/kg intravenously, after 15 minutes, control 12.0 ± 0.1", "result": "12.1 ± 0.1", "unit": "s"}, {"measurement": "prothrombin time, T", "setting": "[3]; 60.0 mg/kg intravenously, after 30 minutes, control 12.0 ± 0.1", "result": "12.0 ± 0.1", "unit": "s"}, {"measurement": "prothrombin time, T", "setting": "[3]; 60.0 mg/kg intravenously, after 60 minutes, control 12.0 ± 0.1", "result": "12.1 ± 0.2", "unit": "s"}, {"measurement": "prothrombin time, T", "setting": "[3]; 60.0 mg/kg intravenously, after 120 minutes, control 12.0 ± 0.1", "result": "12.0 ± 0.1", "unit": "s"}, {"measurement": "effect on the prothrombin time index", "setting": "[3]; doses of 15.0, 30.0, 60.0 mg/kg", "result": "have no effect on the prothrombin time index"}]}
